Laboratory results as given in US10487068B2, “Pyridazine derivatives as RORc modulators” (Genentech, Inc., priority 2015, dated 2019).

Each molecule was assayed against T1, RORc ligand binding domain (Homo sapiens, UniProt P51449) (assay: In Vitro RORc Ligand Binding Assay). Conditions: RORc IC50, radioligand 25-[3H]hydroxycholesterol 6 nM; 0.6 ug/mL RORc receptor; 3 h at 25° C.
T1 sequence (P51449 269-508 limits assumed): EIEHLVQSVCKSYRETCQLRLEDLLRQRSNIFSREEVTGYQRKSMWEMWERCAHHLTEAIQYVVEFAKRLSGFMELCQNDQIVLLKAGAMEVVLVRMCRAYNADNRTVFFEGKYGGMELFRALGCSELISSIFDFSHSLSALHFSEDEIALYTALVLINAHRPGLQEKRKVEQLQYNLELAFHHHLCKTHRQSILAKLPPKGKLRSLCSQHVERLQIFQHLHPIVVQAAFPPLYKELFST

IC50	Compound
7.5 nM	CC1(C)[C@H]2CC[C@]1(c1ccnc(-n3ccnn3)n1)c1nnc(-c3c(F)cccc3F)cc12 [Example 188]
14.8 nM	CC1(C)[C@H]2CC[C@]1(c1ccnc(-n3nccn3)n1)c1nnc(-c3c(F)cccc3F)cc12 [Example 189]
13.6 nM	CC1(C)[C@H]2CC[C@]1(c1ccnc(S(=O)(=O)NCCO)n1)c1nnc(-c3c(F)cccc3F)cc12 [Example 190]
24.6 nM	CC1(C)[C@H]2CC[C@]1(c1cccc(S(=O)(=O)NCC3(O)COC3)n1)c1nnc(-c3c(F)cccc3F)cc12 [Example 191, 6-((5R,8S)-3-(2,6-difluorophenyl)-9,9-dimethyl-5,6,7,8-tetrahydro-5,8-methanocinnolin-8-yl)-N-((3-hydroxyoxetan-3-yl)methyl)pyridine-2-sulfonamide]
124 nM	CC1(C)[C@H]2CC[C@]1(c1ccnc(C#N)c1C#N)c1nnc(-c3c(F)cccc3F)cc12 [Example 192, 4-((5R,8S)-3-(2,6-difluorophenyl)-9,9-dimethyl-5,6,7,8-tetrahydro-5,8-methanocinnolin-8-yl)pyridine-2,3-dicarbonitrile]
57.7 nM	CC1(C)[C@H]2CC[C@]1(c1nc(C(=O)NCCO)ncc1Br)c1nnc(-c3c(F)cccc3F)cc12 [Example 193]
24.2 nM	CC1(C)[C@H]2CC[C@]1(c1cncc(C(=O)NCCO)c1)c1nnc(-c3c(F)cccc3F)cc12 [Example 194, 5-((5R,8S)-3-(2,6-difluorophenyl)-9,9-dimethyl-5,6,7,8-tetrahydro-5,8-methanocinnolin-8-yl)-N-(2-hydroxyethyl)nicotinamide]
6.3 nM	CC1(C)[C@H]2CC[C@]1(c1cncc(-n3cncn3)n1)c1nnc(-c3c(F)cccc3F)cc12 [Example 195]
6.5 nM	CC(C)(O)c1coc(-c2cncc([C@@]34CC[C@@H](c5cc(-c6c(F)cccc6F)nnc53)C4(C)C)n2)n1 [Example 196, 2-(2-(6-((5R,8S)-3-(2,6-difluorophenyl)-9,9-diimethyl-5,6,7,8-tetrahydro-5,8-methanocinnolin-8-yl)pyrazin-2-yl)oxazol-4-yl)propan-2-ol]
14 nM	CC1(C)[C@H]2CC[C@]1(c1cncc(C(=O)N[C@H]3C[C@](C)(O)C3)n1)c1nnc(-c3c(F)cccc3F)cc12 [Example 197, 6-((5R,8S)-3-(2,6-difluorophenyl)-9,9-dimethyl-5,6,7,8-tetrahydro-5,8-methanocinnolin-8-yl)-N-((1r,3S)-3-hydroxy-3-methylcyclobutyl)pyrazine-2-carboxamide]
26.1 nM	CC(C)(O)CNS(=O)(=O)c1cccc([C@@]23CC[C@@H](c4cc(-c5c(F)cccc5F)nnc42)C3(C)C)n1 [Example 198, 6-((5R,8S)-3-(2,6-difluorophenyl)-9,9-dimethyl-5,6,7,8-tetrahydro-5,8-methanocinnolin-8-yl)-N-(2-hydroxy-2-methylpropyl)pyridine-2-sulfonamide]
9.4 nM	CC1(C)[C@H]2CC[C@]1(c1cccc(S(=O)(=O)NC3(CO)COC3)n1)c1nnc(-c3c(F)cccc3F)cc12 [Example 199, 6-((5R,8S)-3-(2,6-difluorophenyl)-9,9-dimethyl-5,6,7,8-tetrahydro-5,8-methanocinnolin-8-yl)-N-(3-(hydroxymethyl)oxetan-3-yl)pyridine-2-sulfonamide]
11.7 nM	C[C@@H](O)CNS(=O)(=O)c1cccc([C@@]23CC[C@@H](c4cc(-c5c(F)cccc5F)nnc42)C3(C)C)n1 [Example 200, 6-((5R,8S)-3-(2,6-difluorophenyl)-9,9-dimethyl-5,6,7,8-tetrahydro-5,8-methanocinnolin-8-yl)-N-((R)-2-hydroxypropyl)pyridine-2-sulfonamide]
33.4 nM	C[C@H](O)CNS(=O)(=O)c1cccc([C@@]23CC[C@@H](c4cc(-c5c(F)cccc5F)nnc42)C3(C)C)n1 [Example 201, 6-((5R,8S)-3-(2,6-difluorophenyl)-9,9-dimethyl-5,6,7,8-tetrahydro-5,8-methanocinnolin-8-yl)-N-((S)-2-hydroxypropyl)pyridine-2-sulfonamide]
10.8 nM	CC1(C)[C@H]2CC[C@]1(c1cncc(-n3cc[nH]c3=O)n1)c1nnc(-c3c(F)cccc3F)cc12 [Example 202, 1-(6-((5R,8S)-3-(2,6-difluorophenyl)-9,9-dimethyl-5,6,7,8-tetrahydro-5,8-methanocinnolin-8-yl)pyrazin-2-yl)-1H-imidazol-2(3H)-one]
24.3 nM	CC(C)(O)c1nnc(-c2cncc([C@@]34CC[C@@H](c5cc(-c6c(F)cccc6F)nnc53)C4(C)C)n2)[nH]1 [Example 203, 2-(5-(6-((5R,8S)-3-(2,6-difluorophenyl)-9,9-dimethyl-5,6,7,8-tetrahydro-5,8-methanocinnolin-8-yl)pyrazin-2-yl)-4H-1,2,4-triazol-3-yl)propan-2-ol]
74.6 nM	CC1(C)[C@H]2CC[C@]1(c1cncc(NC(=O)NCCO)n1)c1nnc(-c3c(F)cccc3F)cc12 [Example 204, 1-(6-((5R,8S)-3-(2,6-difluorophenyl)-9,9-dimethyl-5,6,7,8-tetrahydro-5,8-methanocinnolin-8-yl)pyrazin-2-yl)-3-(2-hydroxyethyl)urea]
10.4 nM	CC1(C)[C@H]2CC[C@]1(c1cncc(-c3cn[nH]c3)n1)c1nnc(-c3c(F)cccc3F)cc12 [Example 205]

IC50	Compound
6.7 nM	CC1(C)[C@H]2CC[C@]1(c1cncc(-c3cnc(CO)o3)n1)c1nnc(-c3c(F)cccc3F)cc12 [Example 206, (5-(6-((5R,8S)-3-(2,6-difluorophenyl)-9,9-dimethyl-5,6,7,8-tetrahydro-5,8-methanocinnolin-8-yl)pyrazin-2-yl)oxazol-2-yl)methanol]
3.8 nM	CC1(C)[C@H]2CC[C@]1(c1cccc(-c3cnc(CO)o3)n1)c1nnc(-c3c(F)cccc3F)cc12 [Example 207, (5-(6-((5R,8S)-3-(2,6-difluorophenyl)-9,9-dimethyl-5,6,7,8-tetrahydro-5,8-methanocinnolin-8-yl)pyridin-2-yl)oxazol-2-yl)methanol]
3.6 nM	Cc1cn(-c2nccc([C@@]34CC[C@@H](c5cc(-c6c(F)cccc6F)nnc53)C4(C)C)n2)cn1 [Example 208]
15.2 nM	Cc1ncc(-c2cnc(C)c([C@@]34CC[C@@H](c5cc(-c6c(F)cccc6F)nnc53)C4(C)C)n2)o1 [Example 209, 5-(6-((5R,8S)-3-(2,6-difluorophenyl)-9,9-dimethyl-5,6,7,8-tetrahydro-5,8-methanocinnolin-8-yl)-5-methylpyrazin-2-yl)-2-methyloxazole]
114 nM	CC1(C)[C@H]2CC[C@]1(c1cc(C#N)nc(C#N)c1)c1nnc(-c3c(F)cccc3F)cc12 [Example 210, 4-((5R,8S)-3-(2,6-difluorophenyl)-9,9-dimethyl-5,6,7,8-tetrahydro-5,8-methanocinnolin-8-yl)pyridine-2,6-dicarbonitrile]
8.8 nM	CC1(C)[C@H]2CC[C@]1(c1ccnc(-n3cccn3)n1)c1nnc(-c3c(F)cccc3F)cc12 [Example 211]
28.1 nM	Cc1ncn(-c2nccc([C@@]34CC[C@@H](c5cc(-c6c(F)cccc6F)nnc53)C4(C)C)n2)n1 [Example 212]
6.1 nM	CC1(C)[C@H]2CC[C@]1(c1cccc(-c3ccn[nH]3)n1)c1nnc(-c3c(F)cccc3F)cc12 [Example 213]
30.5 nM	CC(C)(O)c1nnc(-c2cccc([C@@]34CC[C@@H](c5cc(-c6c(F)cccc6F)nnc53)C4(C)C)n2)[nH]1 [Example 214, 2-(5-(6-((5R,8S)-3-(2,6-difluorophenyl)-9,9-dimethyl-5,6,7,8-tetrahydro-5,8-methanocinnolin-8-yl)pyridin-2-yl)-4H-1,2,4-triazol-3-yl)propan-2-ol]
28.1 nM	CC1(C)[C@H]2CC[C@]1(c1ccnc(-n3cc(CCO)cn3)n1)c1nnc(-c3c(F)cccc3F)cc12 [Example 215]
12.7 nM	CC1(C)[C@H]2CC[C@]1(c1cccc(-n3cnnc3)n1)c1nnc(-c3c(F)cccc3F)cc12 [Example 216]
7.4 nM	CC1(C)[C@H]2CC[C@]1(c1cncc(F)c1)c1nnc(-c3c(F)cccc3F)cc12 [Example 217, (5R,8S)-3-(2,6-difluorophenyl)-8-(5-fluoropyridin-3-yl)-9,9-dimethyl-5,6,7,8-tetrahydro-5,8-methanocinnoline]
60.7 nM	CC1(C)[C@H]2CC[C@]1(c1nc(C(=O)NCCO)ncc1F)c1nnc(-c3c(F)cccc3F)cc12 [Example 218]
6.7 nM	CC1(C)[C@H]2CC[C@]1(c1ccnc(-n3cnc(CO)c3)n1)c1nnc(-c3c(F)cccc3F)cc12 [Example 219]
25.3 nM	CC1(C)[C@H]2CC[C@]1(c1ccnc(-n3cnc(C#N)n3)n1)c1nnc(-c3c(F)cccc3F)cc12 [Example 220]
23.3 nM	C[C@@H](O)c1nnc(-c2cccc([C@@]34CC[C@@H](c5cc(-c6c(F)cccc6F)nnc53)C4(C)C)n2)[nH]1 [Example 221, (R)-1-(5-(6-((5R,8S)-3-(2,6-difluorophenyl)-9,9-dimethyl-5,6,7,8-tetrahydro-5,8-methanocinnolin-8-yl)pyridin-2-yl)-4H-1,2,4-triazol-3-yl)ethanol]
11 nM	C[C@H](O)c1nnc(-c2cccc([C@@]34CC[C@@H](c5cc(-c6c(F)cccc6F)nnc53)C4(C)C)n2)[nH]1 [Example 222, (S)-1-(5-(6-((5R,8S)-3-(2,6-difluorophenyl)-9,9-dimethyl-5,6,7,8-tetrahydro-5,8-methanocinnolin-8-yl)pyridin-2-yl)-4H-1,2,4-triazol-3-yl)ethanol]
62.3 nM	Cc1nnc(-c2ccnc([C@@]34CC[C@@H](c5cc(-c6c(F)cccc6F)nnc53)C4(C)C)c2)[nH]1 [Example 223]
